US5593982A, “Cyclopentanperhydrophenanthren-17β-(3-furyl)-3-derivatives and pharmaceutical compositions comprising same for the treatment of cardiovascular disorders” (Sigma-Tau Industrie Farmaceutiche Riunite S.p.A., priority 1992, dated 1997)
Structures can show the parent of a compound that is named as a salt. Where two headings read alike, the source gives them in different places.

Assays:
[1] = target: T1, Na^+,K^+ -ATPase receptor (Canis lupus familiaris, UniProt P50997); assay: displacement of the specific 3H-ouabain binding from the purified Na+,K+-ATPase receptor
T1 construct: from tissue; mammalian kidney outer medulla by the cited Jorgensen 1974 method (own knowledge)
Text: (§1) To test the affinity for the receptor site of the Na^+,K^+ -ATPase and the agonist or antagonist activity on the enzyme, the following tests were used: a) displacement of the specific ^3 H-ouabain binding from the Na^+,K^+ -ATPase receptor purified according to Jorghensen (Jorghensen P., BBA, 1974, 356, 36) and Erdmann (Erdmann E. et al., Arzneim. Forsh., 1984, 34, 1314); b) inhibition of the activity of the purified Na^+,K^+ -ATPase measured as % of hydrolysis of ^32 P-ATP in presence and in absence of the tested compound (Mall F. et al., Biochem. Pharmacol., 1984, 33, 47).

[2] = target: T2, purified Na^+,K^+ -ATPase (Canis lupus familiaris, UniProt P50997); assay: inhibition of the activity of the purified Na+,K+-ATPase measured as % of hydrolysis of 32P-ATP; type: biochemical
T2 construct: from tissue; mammalian kidney outer medulla by the cited Jorgensen 1974 method (own knowledge)
Text: as §1

[3] = hydrolysis of 32P-ATP, purified Na+,K+-ATPase, read-out: Inhibitory Activity log IC50 (converted)
[4] = displacement of specific 3H-ouabain binding, purified Na+,K+-ATPase, read-out: Binding 3H-Ouab. Displacement log IC50 (converted)

Structure (SMILES) | IC50 [1] | IC50 [2] | IC50 [2, 3] | IC50 [1, 4]
C[C@]12CC[C@H](OCCN)C[C@H]1CC[C@@H]1[C@@H]2CC[C@]2(C)[C@@H](c3ccoc3)CC[C@]12O [Comp. I-aa, 3β-(2-Aminoethoxy)-17β-(3-furyl)-5β-androstan-14β-ol] | 158 nM | 501 nM | – | –
C[C@]12CC[C@H](OCCCCN)C[C@H]1CC[C@@H]1[C@@H]2CC[C@]2(C)[C@@H](c3ccoc3)CC[C@]12O [Comp. I-ac, 3β-(4-Aminobutoxy)-17β-(3-furyl)-5β-androstan-14β-ol] | 398 nM | 2000 nM | – | –
C[C@]12CC[C@H](OCCN3CCCC3)C[C@H]1CC[C@@H]1[C@@H]2CC[C@]2(C)[C@@H](c3ccoc3)CC[C@]12O [Comp. I-ad, 3β-(2-(1-Pyrrolydinyl)ethoxy)-17β-(3-furyl)-5β-androstan-14β-ol] | 158 nM | 1000 nM | – | –
C[C@]12CC[C@H](OCCCN3CCNCC3)C[C@H]1CC[C@@H]1[C@@H]2CC[C@]2(C)[C@@H](c3ccoc3)CC[C@]12O [Comp. I-af, 3β-(3-(1-Piperazinyl)propoxy)-17β-(3-furyl)-5.β-androstan-14β-ol] | 100 nM | – | 1260 nM | –
C[C@]12CC[C@H](OCCOCCN3CCCC3)C[C@H]1CC[C@@H]1[C@@H]2CC[C@]2(C)[C@@H](c3ccoc3)CC[C@]12O [Comp. I-ah, 3β-(2-(2-(1-Pyrrolidinyl)ethoxy)ethoxy)-17β-(3-furyl)-5β-androstan-14β-ol] | 158 nM | 794 nM | – | –
CN(C)CCCOCCO[C@H]1CC[C@@]2(C)[C@H](CC[C@@H]3[C@@H]2CC[C@]2(C)[C@@H](c4ccoc4)CC[C@]32O)C1 [Comp. I-aj, 3β-(2-(3-Dimethylaminopropoxy)-ethoxy)-17β-(3-furyl)-5β-androstan-14β-ol] | 158 nM | – | 1260 nM | –
C[C@]12CC[C@H](OCC[N+]3(C)CCCC3)C[C@H]1CC[C@@H]1[C@@H]2CC[C@]2(C)[C@@H](c3ccoc3)CC[C@]12O [Comp. I-ak, 3β-(2-(N-methyl-1-pyrrolydinium)ethoxy)-17β-(3-furyl)-5β-androstan-14β-ol iodide] | 158 nM | – | 1260 nM | –
C[C@]12CC[C@H](OCCCNC(=N)N)C[C@H]1CC[C@@H]1[C@@H]2CC[C@]2(C)[C@@H](c3ccoc3)CC[C@]12O [Comp. I-am, 3β-(3-Guanidinopropxy)-17β-(3-furyl)-5β-androstan-14β-ol nitrate] | 200 nM | 3160 nM | – | –
CNCCO[C@H]1CC[C@@]2(C)[C@H](CC[C@@H]3[C@@H]2CC[C@]2(C)[C@@H](c4ccoc4)CC[C@]32O)C1 [Comp. I-an, 3β-(2-Methylaminoethoxy)-17β-(3-furyl)-5β-androstan-14β-ol] | 200 nM | 1580 nM | – | –
C[C@]12CC[C@H](OCC(N)CN)C[C@H]1CC[C@@H]1[C@@H]2CC[C@]2(C)[C@@H](c3ccoc3)CC[C@]12O (stereo partly drawn) [Comp. I-ao, 3β-(2,3-Diaminopropoxy)-17β-(3-furyl)-5β-androstan-14β-ol] | 316 nM | 1580 nM | – | –
C[C@]12CC[C@H](OCC(CN3CCCC3)N3CCCC3)C[C@H]1CC[C@@H]1[C@@H]2CC[C@]2(C)[C@@H](c3ccoc3)CC[C@]12O (stereo partly drawn) [Comp. I-ap, 3β-(2,3-Bis(1-pyrrolidinyl)propoxy)-17β-(3-furyl)-5β-androstan-14β-ol] | 398 nM | 1580 nM | – | –
CO[C@]12CC[C@H](c3ccoc3)[C@@]1(C)CC[C@H]1[C@H]2CC[C@@H]2C[C@@H](OCCCN)CC[C@@]21C [Comp. I-ar] | – | – | 25100 nM | 3160 nM
CO[C@]12CC[C@H](c3ccoc3)[C@@]1(C)CC[C@H]1[C@H]2CC[C@@H]2C[C@@H](OCCN3CCCC3)CC[C@@]21C [Comp. I-as, 3β-(2-(1-Pyrrolydinyl)ethoxy)-14β-methoxy-17β-(3-furyl)-5β-androstane oxalate] | – | – | 25100 nM | 5010 nM
C[C@]12CC[C@H](OCCCN)C=C1CC[C@@H]1[C@@H]2CC[C@]2(C)[C@@H](c3ccoc3)CC[C@]12O [Comp. I-at, 3β-(3-Aminopropoxy)-17β-(3-furyl)-androst-4-en-14β-ol] | – | 2510 nM | – | 631 nM
C[C@]12CC[C@H](OCCN3CCCC3)C=C1CC[C@@H]1[C@@H]2CC[C@]2(C)[C@@H](c3ccoc3)CC[C@]12O [Comp. I-au, 3β-(2-(1-Pyrrolidinyl)ethoxy)-17β-(3-furyl)-androst-4-en-14β-ol oxalate] | 316 nM | 1580 nM | – | –
C[C@]12CC[C@H](OCCCN)CC1=CC[C@@H]1[C@@H]2CC[C@]2(C)[C@@H](c3ccoc3)CC[C@]12O [Comp. I-av, 3β-(3-Aminopropoxy)-17β-(3-furyl)-androst-5-en-14β-ol] | – | 2510 nM | – | 631 nM
C[C@]12CC[C@H](OCCN3CCCC3)CC1=CC[C@@H]1[C@@H]2CC[C@]2(C)[C@@H](c3ccoc3)CC[C@]12O [Comp. I-aw, 3β-(2-(1-Pyrrolidinyl)ethoxy)-17β-(3-furyl)-androst-5-en--14β-ol] | 1580 nM | – | 6310 nM | –
C[C@]12CC[C@H](OCCN3CCCC3)C[C@@H]1CC[C@@H]1[C@@H]2CC[C@]2(C)[C@@H](c3ccoc3)CC[C@]12O [Comp. I-ay, 3β-(2-(1-Pyrrolidinyl)ethoxy)-17β-(3-furyl)-5α-androstan-14β-ol] | 398 nM | 3160 nM | – | –
C[C@]12CC[C@H](OCCN3CCCC3)C[C@H]1CC[C@@H]1[C@@H]2CC[C@]2(C)[C@@H](c3ccoc3)C[C@H]3O[C@]132 [Comp. I-ba, 3β-(2-(1-Pyrrolidinyl)ethoxy)-14β,15β-epoxy-17β-(3-furyl)-5β-androstane oxalate] | 631 nM | 1580 nM | – | –
C[C@]12CC[C@H](OCCN3CCCC3)C=C1CC[C@@H]1[C@@H]2CC[C@]2(C)[C@@H](c3ccoc3)C[C@H]3O[C@]132 [Comp. I-bc, 3β-(2-(1-Pyrrolidinyl)ethoxy)-14β,15β-epoxy-17β-(3-furyl)-androst-4-ene] | 316 nM | 2000 nM | – | –
C[C@]12CC[C@H](SCCN3CCOCC3)C[C@H]1CC[C@@H]1[C@@H]2CC[C@]2(C)[C@@H](c3ccoc3)CC[C@]12O [Comp. I-bu, 3β-(2-(4-Morpholinoethylthio)-17β-(3-furyl)-5β-androstan-14β-ol oxalate] | 316 nM | 631 nM | – | –
C[C@]12CC[C@H](SCCCN3CCNCC3)C[C@H]1CC[C@@H]1[C@@H]2CC[C@]2(C)[C@@H](c3ccoc3)CC[C@]12O [Comp. I-bx, 3β-(3-(1-Piperazinyl)propylthio)-17β-(3-furyl)-5β-androstan-14β-ol dioxalate] | 501 nM | 1000 nM | – | –
C[C@]12CC[C@H](SCCN3CCCC3)C=C1CC[C@@H]1[C@@H]2CC[C@]2(C)[C@@H](c3ccoc3)CC[C@]12O [Comp. I-ce, 3β-(2-(1-Pyrrolidinyl)ethylthio)-17β-(3-furyl)-androst-4-en-14β-ol oxalate] | 1000 nM | 3160 nM | – | –
C[C@]12CC[C@H](SCCCN)C[C@H]1CC[C@@H]1[C@@H]2CC[C@]2(C)[C@@H](c3ccoc3)C[C@H]3O[C@]132 [Comp. I-cj, 3β-(3-Aminopropylthio)-14β,15β-epoxy-17β-(3-furyl)-5β-androstane oxalate] | 2000 nM | 6310 nM | – | –
C[C@]12CC[C@H](OCCOCCCN)C[C@H]1CC[C@@H]1[C@@H]2CC[C@]2(C)[C@@H](c3ccoc3)CC[C@]12O [Comp. I-cx, 3β-(2-(3-Aminopropoxy)ethoxy)-17β-(3-furyl)-5β-androstan, 14β-ol] | 200 nM | 1580 nM | – | –
C[C@]12CC[C@H](OCCOCC(O)CN)C[C@H]1CC[C@@H]1[C@@H]2CC[C@]2(C)[C@@H](c3ccoc3)CC[C@]12O (stereo partly drawn) [Comp. I-cy, 3β-(2-(3-Amino-2-hydroxypropoxy)ethoxy)-17β-(3-furyl)-5β-androstan-14β-ol] | 398 nM | 1580 nM | – | –
C[C@]12CC[C@H](OCCOCC(N)CN)C[C@H]1CC[C@@H]1[C@@H]2CC[C@]2(C)[C@@H](c3ccoc3)CC[C@]12O (stereo partly drawn) [Comp. I-cz, 3β-(2-(2,3-Diaminopropoxy)ethoxy)-17β-(3-furyl)-5β-androstan-14β-ol] | 398 nM | 2000 nM | – | –
C[C@]12CC[C@H](OCCOCCCN3CCCC3)C[C@H]1CC[C@@H]1[C@@H]2CC[C@]2(C)[C@@H](c3ccoc3)CC[C@]12O [Comp. I-da, 3β-(2-(3-(1-Pyrrolidinyl)propoxy)ethoxy)-17β-(3-furyl)-5β-androstan-14β-ol] | 316 nM | 1580 nM | – | –
C[C@]12CC[C@H](OCCNCCCN3CCCC3)C[C@H]1CC[C@@H]1[C@@H]2CC[C@]2(C)[C@@H](c3ccoc3)CC[C@]12O [Comp. I-db, 3β-(2-(3-(1-Pyrrolidinyl)propylamino)ethoxy)-17β-(3-furyl)-5β-androstan-14β-ol] | 200 nM | 1580 nM | – | –
